Experimental data published in PubChem BioAssay AID1919007 (Molecular Pharmacology Branch, DTP, NCI, 2023).

System: A498 complex spheroids with HUVEC/MSC, growth
Assay: Anticancer human tumor A498 cell line growth inhibition [AhR];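 note: seven day exposure starting three days after spheroid seeding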;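 for viability, T/C: luminescence signal used as a surrogate for viable cells; luminescence viability scaled so 100% equals DMSO vehicle wells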
Settings: for IC50: curve of first compound; for viability, T/C: stronger effect = lower value
Procedure, shortened: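 Complex tumor spheroids co-cultured with HUVEC and human MSC stroma; AhR antagonists tested in combination with standard-of-care and investigational agents. Top concentration at or near clinical Cmax (else 10 microM), half-log dilutions; growth expressed as percent test/control.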

[1] = second compound 0.1 µM, first compound 0.0316 µM
[2] = second compound 0.1 µM, first compound 0.1 µM
[3] = second compound 0.1 µM, first compound 0.316 µM
[4] = second compound 0.1 µM, first compound 1 µM
[5] = second compound 0.1 µM, first compound 3.16 µM
[6] = second compound 0.1 µM, first compound 10 µM
[7] = second compound 0.316 µM, first compound 0.0316 µM
[8] = second compound 0.316 µM, first compound 0.1 µM
[9] = second compound 0.316 µM, first compound 0.316 µM
[10] = second compound 0.316 µM, first compound 1 µM
[11] = second compound 0.316 µM, first compound 3.16 µM
[12] = second compound 0.316 µM, first compound 10 µM
[13] = second compound 1 µM, first compound 0.0316 µM
[14] = second compound 1 µM, first compound 0.1 µM
[15] = second compound 1 µM, first compound 0.316 µM
[16] = second compound 1 µM, first compound 1 µM
[17] = second compound 1 µM, first compound 3.16 µM
[18] = second compound 1 µM, first compound 10 µM
[19] = second compound 3.16 µM, first compound 0.0316 µM
[20] = second compound 3.16 µM, first compound 0.1 µM
[21] = second compound 3.16 µM, first compound 0.316 µM
[22] = second compound 3.16 µM, first compound 1 µM
[23] = second compound 3.16 µM, first compound 3.16 µM
[24] = second compound 3.16 µM, first compound 10 µM
[25] = second compound 10 µM, first compound 0.0316 µM
[26] = second compound 10 µM, first compound 0.1 µM
[27] = second compound 10 µM, first compound 0.316 µM
[28] = second compound 10 µM, first compound 1 µM
[29] = second compound 10 µM, first compound 3.16 µM
[30] = second compound 10 µM, first compound 10 µM

Compound | IC50 (second compound 0.1 µM) | IC50 (second compound 0.316 µM) | IC50 (second compound 1 µM) | IC50 (second compound 3.16 µM) | IC50 (second compound 10 µM) | viability, T/C [1] | viability, T/C [2] | viability, T/C [3] | viability, T/C [4] | viability, T/C [7] | viability, T/C [8] | viability, T/C [9] | viability, T/C [10] | viability, T/C [13] | viability, T/C [14] | viability, T/C [15] | viability, T/C [16] | viability, T/C [19] | viability, T/C [20] | viability, T/C [21] | further results
CC(C)c1c(-c2ccccc2)nc2c(C#N)c[nH]n2c1=O + Cc1cncc(-c2nc(NCCc3c[nH]c4ccccc34)c3ncn(C(C)C)c3n2)c1 | > 10000 nM | > 10000 nM | > 10000 nM | > 10000 nM | < 31.6 nM | 89.4% | 92.7% | 98.5% | 104% | 103% | 104% | 95.6% | 91% | 92.6% | 95.8% | 95.2% | 88.8% | 50.7% | 49.1% | 52.8% | viability, T/C [5]: 100%; viability, T/C [6]: 94.8%; viability, T/C [11]: 96.9%; viability, T/C [12]: 98.5%; viability, T/C [17]: 91.6%; viability, T/C [18]: 91.2%; viability, T/C [22]: 54.9%; viability, T/C [23]: 49.2%; viability, T/C [24]: 52.7%; viability, T/C [25]: 3%; viability, T/C [26]: 4.01%; viability, T/C [27]: 4.28%; viability, T/C [28]: 3.84%; viability, T/C [29]: 3.64%; viability, T/C [30]: 4.87%
CC1COCCN1c1cc(-c2ccnn2C)c2ccnc(-c3ccn[nH]3)c2n1 (stereo not given) + Cc1cncc(-c2nc(NCCc3c[nH]c4ccccc34)c3ncn(C(C)C)c3n2)c1 | 111 nM | 129 nM | 105 nM | 24.4 nM | < 3.16 nM | 90.6% | 52.5% | 24.5% | 19.4% | 89% | 57.4% | 26% | 20.5% | 81.5% | 52.2% | 23.5% | 21.4% | 51.4% | 41.2% | 22.8% | viability, T/C (second compound 0.1 µM, first compound 0.00316 µM): 94.3%; viability, T/C (second compound 0.1 µM, first compound 0.01 µM): 102%; viability, T/C (second compound 0.316 µM, first compound 0.00316 µM): 98.5%; viability, T/C (second compound 0.316 µM, first compound 0.01 µM): 103%; viability, T/C (second compound 1 µM, first compound 0.00316 µM): 91.3%; viability, T/C (second compound 1 µM, first compound 0.01 µM): 96.8%; viability, T/C (second compound 3.16 µM, first compound 0.00316 µM): 49.4%; viability, T/C (second compound 3.16 µM, first compound 0.01 µM): 50.1%; viability, T/C [22]: 19.5%; viability, T/C (second compound 10 µM, first compound 0.00316 µM): 3.71%; viability, T/C (second compound 10 µM, first compound 0.01 µM): 4.4%; viability, T/C [25]: 6.04%; viability, T/C [26]: 3.64%; viability, T/C [27]: 4.9%; viability, T/C [28]: 10.9%
COc1ccc([C@@H](O)c2cc(-c3ncnc4cc(N5CCOCC5)ccc34)c(F)cc2Cl)nn1 + Cc1cncc(-c2nc(NCCc3c[nH]c4ccccc34)c3ncn(C(C)C)c3n2)c1 | 477 nM | 549 nM | 434 nM | < 31.6 nM | < 31.6 nM | 89.2% | 86.9% | 59% | 30.6% | 89.5% | 85.9% | 67% | 31.1% | 80.6% | 85.1% | 57.5% | 26.6% | 45.1% | 49.3% | 39.3% | viability, T/C [5]: 19.1%; viability, T/C [6]: 10.1%; viability, T/C [11]: 17.7%; viability, T/C [12]: 11.8%; viability, T/C [17]: 17.5%; viability, T/C [18]: 12.4%; viability, T/C [22]: 25%; viability, T/C [23]: 15.4%; viability, T/C [24]: 11.6%; viability, T/C [25]: 3.91%; viability, T/C [26]: 4.22%; viability, T/C [27]: 4.26%; viability, T/C [28]: 3.54%; viability, T/C [29]: 3.86%; viability, T/C [30]: 8.65%
